Here are results for one molecule from US8889709B2, “Use of isoQC inhibitors in the treatment and prevention of inflammatory diseases or conditions” (Probiodrug AG, priority 2006, dated 2014).

The target of assay [1] is human isoQC (Homo sapiens, UniProt Q9NXS2). As to the kind of experiment: Inhibitor assay, human isoQC (Ki/IC50, competitive inhibition).
Protocol: (§1) All measurements were performed with a NovoStar reader for microplates (BMG Labtechnologies) at 30° C. […] Excitation/emission wavelengths were 320/410 nm.
(§2) Kinetic data were evaluated using GraFit software.
In assay [2] the test system is human isoQC. The description is as above. The note with it: isoQC vs human QC.
Protocol: as §1, §2

Molecules are shown by their SMILES. Read-outs that look alike come from different tables or passages of the source.

Consider `COc1ccc(NC(=S)NCCCn2ccnc2)cc1OC.Cl` [1-(3-(1H-imidazol-1-yl)propyl)-3-(3,4-dimethoxyphenyl)thiourea hydrochloride], for which the Ki (commonly the dissociation constant of the complex between target and ligand, obtained from inhibition or displacement) was determined as 480 ± 30 nM at human isoQC [1] and 240 nM on human isoQC [1] (read-out: Ki-value, inhibition of human isoQC-catalyzed conversion of H-Gln-AMC into pGlu-AMC, FIG. 1, Michaelis-Menten model, linear competitive inhibition, inhibitor 0-5 μM). In the assay on human isoQC [2], the “drop in Ki, human isoQC compared with human QC” value amounted to 10 fold.
